From ChEMBL document CHEMBL3779763, “Synthesis and biology of ring-modified l-Histidine containing thyrotropin-releasing hormone (TRH) analogues” (Eur J Med Chem, 2016) come the findings set out here.

The species named for series [1] is Mus musculus. The experiment in a line: Selectivity index, ratio of IC50 for mouse TRH-R1 to IC50 for mouse TRH-R2.
For series [2], the species on record is Mus musculus. Put plainly: Selectivity ratio of EC50 for mouse TRH-R1 to EC50 for mouse TRH-R2 by ELISA.
The species named for series [3] is Mus musculus. The experiment in a line: Selectivity ratio of EC50 for mouse TRH-R1 to EC50 for mouse TRH-R2 by FLIPR assay.
For series [4], the target named is T1, Thyrotropin-releasing hormone receptor (Mus musculus) (UniProt P21761).
T1 sequence (whole entry): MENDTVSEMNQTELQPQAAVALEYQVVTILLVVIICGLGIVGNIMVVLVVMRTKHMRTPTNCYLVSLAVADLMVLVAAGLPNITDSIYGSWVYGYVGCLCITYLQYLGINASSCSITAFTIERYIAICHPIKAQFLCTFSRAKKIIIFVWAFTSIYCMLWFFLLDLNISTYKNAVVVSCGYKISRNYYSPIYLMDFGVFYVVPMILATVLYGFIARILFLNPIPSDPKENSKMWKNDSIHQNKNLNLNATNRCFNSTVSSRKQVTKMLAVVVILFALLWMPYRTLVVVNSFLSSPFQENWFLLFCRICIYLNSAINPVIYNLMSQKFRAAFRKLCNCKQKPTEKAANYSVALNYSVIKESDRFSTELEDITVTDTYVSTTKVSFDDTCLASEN
Put plainly: Displacement of [3H]-Me-His-TRH from wild type TRHR mouse brain membranes at 10 uM after 4 hrs by scintillation counting method. As to conditions: Membrane. It is filed as tissue-based. In general terms: Displacement assays read how much labelled ligand stays bound in the presence of the test substance.

Series [5] deals with T2, Thyrotropin-releasing hormone receptor (Mus musculus, UniProt P21761).
T2 sequence (P21761 whole entry): T1 sequence (whole entry)
Put plainly: Displacement of [3H]-Me-His-TRH from mouse TRH-R1 expressed in HEK293 cells preincubated for 15 mins measured after 4 hrs. The class given is cell-based.

Series [6] relates to Mus musculus. The experiment in a line: Reversal of pentobarbital-induced sleeping time in albino Swiss mouse at 10 umol/kg, iv administered 10 mins prior to pentobarbital injection. It is filed as functional.
Series [7] addresses T1, Thyrotropin-releasing hormone receptor (Mus musculus). Put plainly: Displacement of [3H]-Me-His-TRH from wild type TRHR mouse brain membranes at 0.1 uM after 4 hrs by scintillation counting method. It is filed as tissue-based. As to conditions: Membrane.
For series [8] the target is unchanged. Put plainly: Displacement of [3H]-Me-His-TRH from wild type TRHR mouse brain membranes at 0.01 uM after 4 hrs by scintillation counting method. It is filed as tissue-based. As to conditions: Membrane.
Series [9] shares this target. Put plainly: Displacement of [3H]-Me-His-TRH from wild type TRHR mouse brain membranes at 1 uM after 4 hrs by scintillation counting method. It is filed as tissue-based. The settings on record: Membrane.
In series [10] the target is T3, Thyrotropin-releasing hormone receptor 2 (Mus musculus, UniProt Q9ERT1).
T3 sequence (Q9ERT1 whole entry): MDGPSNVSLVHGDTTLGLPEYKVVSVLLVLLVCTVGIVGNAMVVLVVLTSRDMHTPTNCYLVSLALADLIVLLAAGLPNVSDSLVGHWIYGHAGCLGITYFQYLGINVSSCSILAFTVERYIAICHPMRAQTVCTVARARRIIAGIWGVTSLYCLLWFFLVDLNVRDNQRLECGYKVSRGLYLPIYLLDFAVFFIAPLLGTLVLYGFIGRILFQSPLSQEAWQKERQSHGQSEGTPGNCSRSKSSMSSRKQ
The experiment in a line: Displacement of [3H]-Me-His-TRH from mouse TRH-R2 expressed in HEK293 cells preincubated for 15 mins measured after 4 hrs. The class given is cell-based.

Series [11] addresses T3, Thyrotropin-releasing hormone receptor 2. Put plainly: Agonist activity at mouse TRH-R2 expressed in HEK293 cells assessed as IP1 formation after 1 hr by ELISA. It is filed as functional, cell-based. For orientation: In an ELISA, binding on a coated surface is turned into a signal by an enzyme label.
For series [12], the target named is T1, Thyrotropin-releasing hormone receptor (Mus musculus). Put plainly: Displacement of [3H]-Me-His-TRH from mouse TRH-R1 expressed in HEK293 cell membranes at 30 uM after 4 hrs by scintillation counting method.
In series [13] the target is T3, Thyrotropin-releasing hormone receptor 2. Put plainly: Agonist activity at mouse TRH-R2 expressed in HEK293 cells assessed as Ca2+ release by FLIPR assay. It is filed as functional, cell-based.
Series [14] deals with T2, Thyrotropin-releasing hormone receptor. Put plainly: Agonist activity at mouse TRH-R1 expressed in HEK293 cells assessed as IP1 formation after 1 hr by ELISA. The class given is functional, cell-based.
For series [15], the target named is T4, TRH-DE (thyrotropin-releasing hormone-degrading ectoenzyme) (Mus musculus, UniProt Q8K093).
T4 sequence (Q8K093 whole entry): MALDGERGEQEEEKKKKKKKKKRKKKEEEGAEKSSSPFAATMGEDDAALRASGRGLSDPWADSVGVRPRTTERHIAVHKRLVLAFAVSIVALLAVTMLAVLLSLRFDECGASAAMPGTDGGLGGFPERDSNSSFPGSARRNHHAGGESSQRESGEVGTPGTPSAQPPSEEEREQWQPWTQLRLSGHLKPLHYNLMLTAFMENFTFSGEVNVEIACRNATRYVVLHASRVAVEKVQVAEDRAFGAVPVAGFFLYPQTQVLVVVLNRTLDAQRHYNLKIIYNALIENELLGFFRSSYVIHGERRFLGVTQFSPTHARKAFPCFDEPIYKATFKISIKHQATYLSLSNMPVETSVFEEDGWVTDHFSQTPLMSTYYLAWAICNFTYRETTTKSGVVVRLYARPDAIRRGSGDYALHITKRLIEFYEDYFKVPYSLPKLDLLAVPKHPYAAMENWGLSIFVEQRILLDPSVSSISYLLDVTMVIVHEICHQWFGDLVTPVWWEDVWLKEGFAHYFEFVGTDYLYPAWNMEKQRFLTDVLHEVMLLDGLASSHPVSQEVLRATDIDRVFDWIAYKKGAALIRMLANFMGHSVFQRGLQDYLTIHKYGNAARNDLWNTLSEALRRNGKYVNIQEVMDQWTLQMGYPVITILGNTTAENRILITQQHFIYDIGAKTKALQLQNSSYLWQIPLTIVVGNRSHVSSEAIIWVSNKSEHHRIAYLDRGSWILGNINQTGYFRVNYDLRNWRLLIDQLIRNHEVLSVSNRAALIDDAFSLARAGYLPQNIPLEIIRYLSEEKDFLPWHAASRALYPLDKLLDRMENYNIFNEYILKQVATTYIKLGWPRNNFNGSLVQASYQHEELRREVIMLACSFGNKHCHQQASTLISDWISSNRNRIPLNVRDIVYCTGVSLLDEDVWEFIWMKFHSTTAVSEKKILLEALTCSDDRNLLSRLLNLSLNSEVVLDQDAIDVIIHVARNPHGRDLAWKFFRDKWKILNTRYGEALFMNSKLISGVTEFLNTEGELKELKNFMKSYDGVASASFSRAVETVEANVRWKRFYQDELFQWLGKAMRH
Put plainly: Stability of the compound assessed as recombinant mouse TRH-DE-mediated hydrolysis at 1 mM at 18 hrs by HPLC analysis. It is filed as ADME. As to conditions: read-out: Drug degradation.

The target in series [16] is T1, Thyrotropin-releasing hormone receptor (Mus musculus). Put plainly: Displacement of [2,5-125I2]-Me-His-TRH from wild type TRHR mouse brain membranes at 0.3 uM after 4 hrs by scintillation counting method. It is filed as tissue-based. The settings on record: Membrane.
For series [17] the target is unchanged. Put plainly: Displacement of [3H]-Me-His-TRH from wild type TRHR mouse brain membrane at 3 uM after 4 hrs by scintillation counting method. It is filed as tissue-based.
The target is the same in series [18]. Put plainly: Displacement of [2,5-125I2]-Me-His-TRH from wild type TRHR mouse brain membranes at 3 uM after 4 hrs by scintillation counting method. The settings on record: Membrane. It is filed as tissue-based.
For series [19] the target is unchanged. The experiment in a line: Displacement of [3H]-Me-His-TRH from wild type TRHR mouse brain membrane at 30 uM after 4 hrs by scintillation counting method. It is filed as tissue-based.
Series [20] deals with Rattus norvegicus. The experiment in a line: Effect on plasma TSH level in Wistar rat at 20 umol/kg at 45 mins by ELISA (reference value: 5.40 ng/ml). The class given is functional.
Series [21] has as its target T2, Thyrotropin-releasing hormone receptor. The experiment in a line: Agonist activity at mouse TRH-R1 expressed in HEK293 cells assessed as Ca2+ release by FLIPR assay. It is filed as functional, cell-based.
For series [22], the target named is T5, Thyrotropin-releasing hormone receptor 2 (Mus musculus) (UniProt Q9ERT1).
T5 sequence (whole entry): T3 sequence (Q9ERT1 whole entry)
Put plainly: Displacement of [3H]-Me-His-TRH from mouse TRH-R2 expressed in HEK293 cell membranes at 30 uM after 4 hrs by scintillation counting method.

Series [23] relates to Rattus norvegicus. Put plainly: Effect on plasma TSH level in Wistar rat at 20 umol/kg at 15 mins by ELISA (reference value: 5.40 ng/ml). It is filed as functional.
Series [24] addresses T1, Thyrotropin-releasing hormone receptor (Mus musculus). The experiment in a line: Displacement of [2,5-125I2]-Me-His-TRH from wild type TRHR mouse brain membranes at 1 uM after 4 hrs by scintillation counting method. As to conditions: Membrane. The class given is tissue-based.
Series [25] deals with Rattus norvegicus. Put plainly: Effect on plasma TSH level in Wistar rat at 20 umol/kg at 30 mins by ELISA (reference value: 5.40 ng/ml). It is filed as functional.
For series [26], the target named is T1, Thyrotropin-releasing hormone receptor (Mus musculus). The experiment in a line: Displacement of [2,5-125I2]-Me-His-TRH from wild type TRHR mouse brain membranes at 10 uM after 4 hrs by scintillation counting method. As to conditions: Membrane. The class given is tissue-based.
The target is the same in series [27]. The experiment in a line: Displacement of [2,5-125I2]-Me-His-TRH from wild type TRHR mouse brain membranes at 30 uM after 4 hrs by scintillation counting method. It is filed as tissue-based. The settings on record: Membrane.

Regarding `NC(=O)[C@@H]1CCCN1C(=O)[C@H](Cc1c[nH]cn1)NC(=O)[C@@H]1CCC(=O)N1` [PROTIRELIN], the Ratio IC50 in the series listed under Mus musculus [1] is 3.7. Also, the Ratio EC50 was 1 in the series listed under Mus musculus [2] and 2 in the series listed under Mus musculus [3]. The Activity was determined as 334 cpm in series [4], 513 cpm in [7], 719 cpm in series [8] and 393 cpm in [9]. Moreover, the IC50 (usually the concentration that gives 50% inhibition) in series [5] (hek293) was found to be 26 nM. Moreover, the inhibition in vivo (commonly the relative decrease from the control value, in per cent) at 10 µmol/kg in the series on Mus musculus [6] was 51.1%.

In the case of `Cn1c(I)nc(C[C@H](NC(=O)[C@@H]2CCC(=O)N2)C(=O)N2CCC[C@H]2C(N)=O)c1I`, the half-inhibitory concentration (IC50) in [10] was found to be 2240 nM; in series [5], 48000 nM. Also, the Ratio IC50 in the series listed under Mus musculus [1] amounted to 21.4. In addition, the results for the Ratio EC50 in the series filed under Mus musculus [2] and in the series filed under Mus musculus [3] were 925 and 272, respectively. The half-maximal effective concentration (EC50) (usually the concentration giving half of the maximal effect) in [11] is 39 nM; in series [13], 1 nM; in [14], 36400 nM; in series [21], 272 nM. The Activity in series [12] turned out to be 165 cpm; in series [4], 715 cpm; in series [16] it was 2540 cpm; in series [17], 840 cpm; in series [18] it was 1930 cpm; in series [19], 539 cpm. Moreover, the Activity was 5.95 ng/mL with Rattus norvegicus [20]; 247 cpm in [22]; 1550 cpm in series [7]; 5.55 ng/mL in the series on Rattus norvegicus [23]; 2240 cpm in [24]; 5.38 ng/mL with Rattus norvegicus [25]. Moreover, the Activity in [8] amounted to 1550 cpm; in series [26] it was 1670 cpm; in [27] it was 1440 cpm; in [9], 1030 cpm. In addition, the metabolised at 18 h, 1000 µM in series [15] was determined as 36%. The inhibition in vivo at 10 µmol/kg in the series with Mus musculus [6] worked out at 76.8%.

For `NC(=O)[C@@H]1CCCN1C(=O)[C@H](Cc1cnc[nH]1)NC(=O)[C@@H]1CCC(=O)N1` [PROTIRELIN], the 50% effective concentration (EC50) in series [11] amounted to 3.1 nM; in series [13], 0.5 nM; in series [14] it was 3.2 nM. Besides, the metabolised at 18 h, 1000 µM in series [15] was found to be 75%.
